Where two headings read alike, the source gives them in different places.
Assays:
Type in all cases: cell-based
[1] = molecular target: T1, GluN1a/2B (Homo sapiens, UniProt Q05586+Q13224); test: Selectivity: whole-cell normalized peak current of NMDA receptor GluN1a/2B; conditions: 16 µM compound, HEK293t, −60 mV
T1 construct: expressed in transfected cells; host or cells: HEK293t cells
Procedure: (§1) To evaluate the selectivity of CIC-1 and CIC-2 derivatives, their effects on GluN1a/2A and GluN1a/2B of the NMDA receptors were tested. The normalized peak current responses of the subunits alone and with CIC-1 and CIC-2 were determined (Figure 4).
(§2) Figure 4 The inhibitory actions of Isoxazole-4-carboxamide derivatives on the whole-cell currents mediated by GluA2, GluA2/3 AMPA receptor subtypes and GluN1a/2A, […] receptor subtypes. (a) represents data for CIC-1 and CIC-2 compounds. AMPA- and NMDA-induced currents (black bars) are then compared to currents recorded in the presence of 16 µM CIC compounds (white bars). Panels (b–e) show representative traces of whole-cell current responses to a 1 ms administration of 10 mM glutamate for the subunits. The traces show normalized responses for glutamate alone (black) and glutamate in combination with CIC compounds (color-coded). The recording was performed in HEK293t cells at −60 mV, pH 7.4, and 22 °C. Data present mean ± SD from 3–4 different experiments. *** p < 0.001; and “ns” indicates not significant.

[2] = molecular target: T2, GluA2/3 (UniProt P19491+P42263); test: Whole-cell patch clamp recordings of heteromeric GluA2/3 AMPA receptor currents and kinetics in transfected HEK293t cells
T2 construct: expressed in transfected cells; host or cells: HEK293T (HEK293) cells, transient co-transfection
Text: (§3) The AMPA receptor subunits utilized in this study were of the flip isoform. The flip variant of the GluA2 subunit was originally provided by S. F. Heinemann (Salk Institute, La Jolla, CA, USA) in a pBlueScript plasmid. This plasmid was subsequently sub-cloned into a pRK vector to enable expression in HEK293 cells, which were sourced from Sigma, Germany. Additionally, the unedited version of GluA2 (R607Qjj, flip isoform) and enhanced green fluorescent protein (EGFP), both contained in pRK5 vectors, were generously supplied by P. H. Seeburg (Max Planck Institute for Medical Research, Heidelberg, Germany). Chemical-mediated ways induced transfection. GluA2 homomers were expressed into HEK293 cells by the co-transfection of 1 μg GluA2 plasmid with an equal amount of GFP expression vectors (1:1 ratio) into the cells. In addition, co-transfection was conducted for heteromeric GluA2/3 subunits at a ratio of 1:1.2 for optimum expression. For post-transfection experiments, cells were plated in 10% fetal calf serum and antibiotics in DMEM in Petri plates. These cultures were maintained under carefully controlled conditions—37 °C and 5% CO2 within a humidified incubator. The selection of cells for recordings was based on fluorescence intensity. Highly GFP-positive cells were identified and isolated for further analysis, ensuring precise targeting of transfected populations.
(§4) Whole-cell patch clamp recordings were performed on HEK293t cells 36–48 h after transfection. Experiments were conducted at 22 °C, maintaining a holding potential of −60 mV, using an Integrated Patch Amplifier (IPA) from Sutter Instruments (Novato, CA, USA). Data acquisition was managed with SutterPatch Software v. 1.1.1 (Sutter Instruments), employing a sampling rate of 10 kHz and setting the low-pass filter at 2 kHz. […] The external solution contained 150 mM NaCl, 2.8 mM KCl, 0.5 mM MgCl2, 2 mM CaCl2, and 10 mM HEPES, adjusted to a pH of 7.4 using NaOH. The internal pipette solution was composed of 110 mM CsF, 30 mM CsCl, 4 mM NaCl, 0.5 mM CaCl2, 10 mM trypsin-EDTA solution B (0.25%), 0.05% EDTA, and 10 mM HEPES, with the pH adjusted to 7.2 using CsOH.
(§5) A dual-barrel glass pipette (theta tube) was employed for the rapid delivery of glutamate and other solutions. The theta tube was attached to a high-speed piezoelectric solution exchange system (Automate Scientific, Berkeley, CA, USA). To assess the efficiency of solution exchange, open-tip potentials were measured by applying solutions with different ionic compositions after the patch was expelled from the pipette. The time required for a 10–90% change in the solution was generally less than […].
(§6) Data analysis was performed with Igor Pro8.04 software (Wave Metrics, Inc., Portland, OR, USA). AMPA receptor deactivation and desensitization kinetics were measured by applying 10 mM glutamate for 1 ms and 500 ms, respectively. The currents from the AMPA receptor were fitted to a double-exponential model to quantify deactivation and desensitization time constants measured from the double-exponential fits. The weighted tau (τw) is calculated as: τw = (τf × af) + (τs × as), where τf and τs are the time constants of fast and slow exponential components and af and as represent their relative amplitudes.
(§7) Data are presented as the mean ± standard deviation (SD). The total number of HEK293 cells engaged was n = 10. The experimental groups were compared to the wild type using a one-way analysis of variance (ANOVA). Statistical significance was assessed using p values: p < 0.05 (*) indicated significance, p < 0.01 (**) indicated high significance, and p < 0.001 (***) indicated very high significance. The value “ns” indicates non-significance. Concentration–response relationships were modeled using the Hill equation with the resulting combined plots via GraphPad Prism software (version 6.01, GraphPad Software). The data presented are the means from 3–4 experimental replicates. […]

[3] = molecular target: T3, GluA2 (Rattus norvegicus, UniProt P19491); test: Whole-cell patch clamp recordings of homomeric GluA2 AMPA receptor currents and kinetics in transfected HEK293t cells
T3 construct: expressed in transfected cells; host or cells: HEK293T (HEK293) cells, transient co-transfection with a separate EGFP vector
Text: as §3, §4, §5, §6, §7

[4] = molecular target: T4, GluN1a/2A (Homo sapiens, UniProt Q05586+Q12879); test: Selectivity: whole-cell normalized peak current of NMDA receptor GluN1a/2A; conditions: 16 µM compound, HEK293t, −60 mV
T4 construct: expressed in transfected cells; host or cells: HEK293t cells
Procedure: as §1, §2

[5] = 16 µM compound co-applied with agonist, HEK293t, −60 mV, pH 7.4, 22 °C, mean ± SD, n = 10
[6] = 16 µM compound, mean ± SD, n = 10
[7] = 10 mM glutamate for 1 ms, with compound, mean ± SD
[8] = 10 mM glutamate for 500 ms, with compound, mean ± SD
[9] = concentration–response fit, read-out: Log IC50 (converted)
[10] = glutamate alone after the compound, mean ± SD, n = 10
[11] = inhibition of whole-cell peak current, concentration–response, Hill fit, read-out: IC50
[12] = versus glutamate alone, one-way ANOVA

T3 sequence (P19491 22-883 isoform P19491-2 limits assumed): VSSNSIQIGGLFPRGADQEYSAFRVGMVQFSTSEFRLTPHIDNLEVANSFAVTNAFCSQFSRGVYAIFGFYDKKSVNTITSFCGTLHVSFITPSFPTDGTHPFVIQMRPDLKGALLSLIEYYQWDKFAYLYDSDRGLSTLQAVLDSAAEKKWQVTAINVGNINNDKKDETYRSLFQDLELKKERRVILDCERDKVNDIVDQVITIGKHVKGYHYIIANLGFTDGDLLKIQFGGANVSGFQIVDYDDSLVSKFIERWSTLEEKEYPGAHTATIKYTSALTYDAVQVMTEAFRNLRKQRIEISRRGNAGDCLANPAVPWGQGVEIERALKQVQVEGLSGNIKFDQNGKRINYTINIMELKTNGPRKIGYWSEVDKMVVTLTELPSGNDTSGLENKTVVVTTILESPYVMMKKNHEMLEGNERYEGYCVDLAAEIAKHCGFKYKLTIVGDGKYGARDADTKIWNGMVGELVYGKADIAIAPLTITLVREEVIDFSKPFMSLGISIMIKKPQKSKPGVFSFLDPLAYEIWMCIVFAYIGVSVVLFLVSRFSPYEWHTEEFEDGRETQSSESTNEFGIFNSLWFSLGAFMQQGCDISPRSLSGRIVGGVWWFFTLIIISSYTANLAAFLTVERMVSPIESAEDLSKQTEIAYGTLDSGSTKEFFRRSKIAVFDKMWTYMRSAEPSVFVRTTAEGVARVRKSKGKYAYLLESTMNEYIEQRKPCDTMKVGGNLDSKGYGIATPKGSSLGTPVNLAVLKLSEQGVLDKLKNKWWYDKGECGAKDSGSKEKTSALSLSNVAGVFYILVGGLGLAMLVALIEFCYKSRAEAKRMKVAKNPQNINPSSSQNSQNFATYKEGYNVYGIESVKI
T2 sequence (P19491 22-883 isoform P19491-2 limits assumed): as above
T2 sequence (P42263 29-894 isoform P42263-2 limits assumed): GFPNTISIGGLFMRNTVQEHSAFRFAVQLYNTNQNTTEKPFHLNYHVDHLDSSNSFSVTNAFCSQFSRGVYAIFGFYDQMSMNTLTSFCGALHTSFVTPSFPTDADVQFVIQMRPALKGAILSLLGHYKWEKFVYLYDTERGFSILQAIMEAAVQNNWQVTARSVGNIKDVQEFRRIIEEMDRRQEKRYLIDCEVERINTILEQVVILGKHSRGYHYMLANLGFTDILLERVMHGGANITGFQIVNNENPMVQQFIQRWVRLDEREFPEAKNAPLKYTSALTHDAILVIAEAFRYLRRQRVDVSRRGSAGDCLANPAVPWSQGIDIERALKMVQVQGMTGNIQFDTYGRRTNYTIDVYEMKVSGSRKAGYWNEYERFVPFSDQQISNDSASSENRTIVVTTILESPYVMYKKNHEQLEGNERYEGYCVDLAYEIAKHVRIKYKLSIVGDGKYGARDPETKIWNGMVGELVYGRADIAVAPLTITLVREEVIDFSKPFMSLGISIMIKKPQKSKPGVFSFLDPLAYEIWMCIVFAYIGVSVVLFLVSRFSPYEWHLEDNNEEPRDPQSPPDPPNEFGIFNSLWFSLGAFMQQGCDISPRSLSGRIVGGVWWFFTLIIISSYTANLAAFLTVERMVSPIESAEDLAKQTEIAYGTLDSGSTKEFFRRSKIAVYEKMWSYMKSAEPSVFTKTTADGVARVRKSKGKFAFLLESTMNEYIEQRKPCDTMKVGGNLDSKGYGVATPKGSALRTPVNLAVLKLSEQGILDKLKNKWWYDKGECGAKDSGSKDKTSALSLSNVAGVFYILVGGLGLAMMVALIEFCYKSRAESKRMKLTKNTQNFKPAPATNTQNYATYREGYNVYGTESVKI
T1 sequence (Q13224 27-1484, other chains not shown): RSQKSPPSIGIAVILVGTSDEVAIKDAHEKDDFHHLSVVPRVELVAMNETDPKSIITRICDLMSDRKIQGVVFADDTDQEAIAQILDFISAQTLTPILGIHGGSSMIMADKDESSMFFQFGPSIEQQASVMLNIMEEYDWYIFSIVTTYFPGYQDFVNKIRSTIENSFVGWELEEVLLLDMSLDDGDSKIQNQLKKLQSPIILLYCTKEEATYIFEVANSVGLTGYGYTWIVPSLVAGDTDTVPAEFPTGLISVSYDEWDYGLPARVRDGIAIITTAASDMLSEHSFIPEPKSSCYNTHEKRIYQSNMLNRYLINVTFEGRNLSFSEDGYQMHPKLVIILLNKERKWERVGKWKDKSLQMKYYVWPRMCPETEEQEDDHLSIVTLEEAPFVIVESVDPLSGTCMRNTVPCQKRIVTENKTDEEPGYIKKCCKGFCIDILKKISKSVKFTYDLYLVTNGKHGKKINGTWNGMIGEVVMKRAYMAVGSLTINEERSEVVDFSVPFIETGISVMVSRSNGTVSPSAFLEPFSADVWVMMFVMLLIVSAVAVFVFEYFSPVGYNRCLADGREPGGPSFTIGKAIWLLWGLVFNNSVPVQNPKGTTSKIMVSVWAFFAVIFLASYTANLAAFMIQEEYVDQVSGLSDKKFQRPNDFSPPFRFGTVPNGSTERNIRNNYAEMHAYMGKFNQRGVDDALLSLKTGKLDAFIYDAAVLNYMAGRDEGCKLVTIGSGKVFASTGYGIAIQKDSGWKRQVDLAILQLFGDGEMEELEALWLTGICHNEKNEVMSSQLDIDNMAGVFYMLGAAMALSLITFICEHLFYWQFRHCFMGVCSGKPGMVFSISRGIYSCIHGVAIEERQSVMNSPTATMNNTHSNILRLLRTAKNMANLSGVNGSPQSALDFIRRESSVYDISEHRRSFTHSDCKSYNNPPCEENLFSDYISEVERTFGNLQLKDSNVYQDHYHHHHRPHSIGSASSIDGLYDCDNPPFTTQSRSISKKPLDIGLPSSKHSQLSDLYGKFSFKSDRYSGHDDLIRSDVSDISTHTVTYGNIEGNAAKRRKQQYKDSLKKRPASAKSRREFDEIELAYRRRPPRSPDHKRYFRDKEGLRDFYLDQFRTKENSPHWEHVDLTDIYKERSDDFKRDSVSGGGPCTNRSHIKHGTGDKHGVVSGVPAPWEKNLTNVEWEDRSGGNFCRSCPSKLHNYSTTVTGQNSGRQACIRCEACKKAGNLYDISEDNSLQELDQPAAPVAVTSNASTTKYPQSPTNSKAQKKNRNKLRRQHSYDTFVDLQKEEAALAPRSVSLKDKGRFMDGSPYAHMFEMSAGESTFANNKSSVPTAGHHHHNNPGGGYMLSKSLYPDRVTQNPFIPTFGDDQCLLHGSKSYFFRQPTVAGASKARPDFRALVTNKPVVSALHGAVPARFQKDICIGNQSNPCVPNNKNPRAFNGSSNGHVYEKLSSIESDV
T4 sequence (Q12879 23-1464, other chains not shown): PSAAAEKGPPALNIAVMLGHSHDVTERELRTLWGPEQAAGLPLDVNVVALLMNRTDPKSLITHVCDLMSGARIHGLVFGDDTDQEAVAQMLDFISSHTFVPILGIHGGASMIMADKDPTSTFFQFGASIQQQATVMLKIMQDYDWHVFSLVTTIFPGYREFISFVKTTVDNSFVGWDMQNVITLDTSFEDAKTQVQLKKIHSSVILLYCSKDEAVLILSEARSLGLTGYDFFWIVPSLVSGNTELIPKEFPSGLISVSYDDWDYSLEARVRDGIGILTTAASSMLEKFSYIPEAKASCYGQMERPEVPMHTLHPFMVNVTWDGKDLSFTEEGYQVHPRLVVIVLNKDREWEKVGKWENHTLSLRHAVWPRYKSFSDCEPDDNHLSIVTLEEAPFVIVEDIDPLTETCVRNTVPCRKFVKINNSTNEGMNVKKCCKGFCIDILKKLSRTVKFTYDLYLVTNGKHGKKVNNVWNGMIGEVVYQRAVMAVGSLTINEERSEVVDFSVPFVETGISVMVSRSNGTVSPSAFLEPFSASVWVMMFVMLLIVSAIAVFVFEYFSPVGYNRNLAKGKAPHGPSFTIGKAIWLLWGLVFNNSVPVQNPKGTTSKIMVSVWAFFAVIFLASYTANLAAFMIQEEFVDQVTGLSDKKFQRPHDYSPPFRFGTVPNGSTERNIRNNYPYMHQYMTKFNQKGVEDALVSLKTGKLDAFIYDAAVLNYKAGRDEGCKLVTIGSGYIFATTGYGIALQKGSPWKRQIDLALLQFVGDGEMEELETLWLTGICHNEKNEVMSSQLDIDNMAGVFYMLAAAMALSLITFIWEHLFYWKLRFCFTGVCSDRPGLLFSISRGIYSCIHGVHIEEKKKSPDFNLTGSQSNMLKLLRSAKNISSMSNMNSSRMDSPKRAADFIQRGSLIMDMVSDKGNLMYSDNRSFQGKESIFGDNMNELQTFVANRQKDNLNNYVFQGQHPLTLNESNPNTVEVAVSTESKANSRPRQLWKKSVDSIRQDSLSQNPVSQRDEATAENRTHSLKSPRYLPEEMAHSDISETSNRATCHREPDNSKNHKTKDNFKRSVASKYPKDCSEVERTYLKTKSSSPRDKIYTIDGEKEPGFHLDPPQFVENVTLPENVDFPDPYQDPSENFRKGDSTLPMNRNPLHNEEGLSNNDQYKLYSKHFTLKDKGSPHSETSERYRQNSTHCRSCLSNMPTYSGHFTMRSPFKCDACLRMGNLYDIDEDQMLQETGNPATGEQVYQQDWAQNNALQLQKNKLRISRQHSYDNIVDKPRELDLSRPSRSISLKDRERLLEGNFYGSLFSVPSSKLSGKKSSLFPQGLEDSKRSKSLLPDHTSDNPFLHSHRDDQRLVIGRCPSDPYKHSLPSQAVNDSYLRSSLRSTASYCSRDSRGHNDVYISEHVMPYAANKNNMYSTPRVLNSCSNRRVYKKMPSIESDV

- Effect on normalized peak current [1]: statistically not significant
- Amplitude (peak whole-cell current in presence of compound) [2, 5]: 75 ± 6 pA
- A/AI (amplitude ratio, glutamate alone / with compound) [2, 6]: 7.65±0.45
- t deact (weighted deactivation time constant) [2, 7]: 7.8 ± 0.4 ms
- IC50 [2, 9]: 3.31 µM
- Amplitude, applying glutamate alone after compound [2, 10]: 552±44 pA
- IC50 [2, 11]: 3.32 µM
- Increase of deactivation time constant (τdeac) ([2]; versus control): approximately 4 fold
- Amplitude (peak whole-cell current in presence of compound) [3, 5]: 160 ± 12 pA
- A/AI (amplitude ratio, glutamate alone / with compound) [3, 6]: 7.79±0.42
- t deact (weighted deactivation time constant) [3, 7]: 7.9 ± 0.3 ms
- IC50 [3, 9]: 3.16 µM
- Amplitude, applying glutamate alone after compound [3, 10]: 1213±94 pA
- IC50 [3, 11]: 3.18 µM
- Increase of deactivation time constant (τdeac) ([3]; versus control): approximately 4 fold
- Effect on normalized peak current [4]: statistically not significant
Compound: COc1cc(NC(=O)c2c(-c3c(Cl)cccc3Cl)noc2C)c(OC)cc1Cl [CIC-2, N-(4-chloro-2,5-dimethoxyphenyl)-3-(2,6-dichlorophenyl)-5-methylisoxazole-4-carboxamide]
- t des (weighted desensitization time constant) [2, 8]: 0.8 ± 0.1 ms
- Effect on desensitization kinetics (τdes), in words [2, 12]: accelerating desensitization
- t des (weighted desensitization time constant) [3, 8]: 0.7 ± 0.1 ms
- Effect on desensitization kinetics (τdes), in words [3, 12]: accelerating desensitization

Reference: publication PMC11932207, “Regulating AMPA Receptors with Isoxazole-4-Carboxamide Derivatives: An Electrophysiological Study” (Journal of Xenobiotics, 2025)
